One experiment relates to esterases. Description: Sacrificial ester control for esterases in a urine sample with peptide substrate. It counts as biochemical. The following applies: urine sample + peptide substrate 0.4 mM, with and without ester 40 mM; single experiment. As to the method:
This was tested by running a urine sample (+peptide substrate; 0.4 mM) with and without a “sacrificial ester” (alanine methyl ester; 40 mM). The idea is that if there are esterases in the sample, adding a relatively high concentration of ester will prevent them from cleaving the peptide substrate and we should therefore see a higher turnover of substrate.

A further experiment addresses T1, PSA (Homo sapiens, UniProt P07288).
T1 construct: purchased Scripps Laboratories
Description: Optical (fluorogenic) assay of peptide substrate cleavage by PSA. The experiment is classed as biochemical. Conditions: fluorogenic AMC-labelled substrate, 0.4 mM in buffer A. As to the method: Serial dilution of PSA (reagent #5)+substrate
The desired clinical urine samples were thawed at room temperature, gently vortexed, and briefly centrifuged (<20 seconds) to accumulate sample at the bottom of the tube. Each 50 μL sample was transferred via pipette to the 96-well microplate. The PSA standards (20 μL) were prepared and loaded in the same way. A multichannel pipette was used to transfer the substrate (150 μL) one column at a time and the start time recorded. Once the entire plate was loaded, it was inserted into the microplate reader and analyzed every 10 min. for 2-12 hrs.
Serial dilution of AMC (reagent #6) to determine linear fluorescence range: Reagent #6 (35.9 μL) was diluted to 2.0 mL buffer A to give a concentration of 0.4 mM. A 1:2 dilution was performed to give a final concentration range of 0.4 mM-0.024 uM. This was loaded into a 96-well microplate in duplicate and scanned one time. Serial dilution of PSA (reagent #5)+substrate: 20 μL of each standard PSA standard solution (see general procedure for protein dilution above) was loaded in duplicate into a 96-well microplate followed by 150 μL of peptide substrate in buffer A (see general procedure above) and scanned for at least 3 hrs. Serial dilution of α-Chymotrypsin (reagent #8)+substrate: Same as experiment 2 but with reagent #8. […]

We go through 3 molecules from patent US20140134658A1, “PSA ENZYMATIC ACTIVITY: A NEW BIOMARKER FOR ASSESSING PROSTATE CANCER AGGRESSIVENESS” (NORTHWESTERN UNIVERSITY, AN ILLINOIS NOT FOR PROFIT …, priority 2010, published 2014).

T1 sequence (P07288 25-261): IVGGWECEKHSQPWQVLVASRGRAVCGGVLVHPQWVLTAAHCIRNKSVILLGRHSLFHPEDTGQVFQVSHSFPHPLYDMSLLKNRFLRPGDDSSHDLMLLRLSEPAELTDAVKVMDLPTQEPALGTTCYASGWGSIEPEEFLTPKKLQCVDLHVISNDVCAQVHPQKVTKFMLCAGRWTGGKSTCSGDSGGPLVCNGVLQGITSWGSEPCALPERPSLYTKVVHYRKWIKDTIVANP

With `COC(=O)[C@H](C)N` [alanine methyl ester], the “effect of sacrificial ester on turnover of peptide substrate” value in the experiment on esterases is “no difference between the sample run with ester and that run without ester”. Regarding Mor-HSSK-Hic-Q-AMC, the “cleavage of substrate by PSA” value at PSA is reported as “show cleavage by PSA”. With Mor-HSSK-Hiv-Q-AMC, the “cleavage of substrate by PSA” value on PSA is “show cleavage by PSA”.
